From ChEMBL document CHEMBL3044586, “Design, synthesis, and anticonvulsant screening of some substituted piperazine and aniline derivatives of 5-phenyl-oxazolidin-2,4-diones and 5,5-diphenylimidazolidin-2,4 diones” (Med Chem Res, 2012)
The source made the active and inactive calls. The rule behind the calls is not given here.

Columns and labels:
[1] = test system: Mus musculus; assay: Anticonvulsant activity in Mus musculus Swiss albino (mouse) assessed as reduction in maximal electroshock-induced seizure at 100 mg/kg, ip measured after 0.5 hr; format: functional, organism-based; set-up: dose 100 mg/kg
[2] = test system: Mus musculus; assay: Neurotoxicity against Mus musculus Swiss albino (mouse) assessed as inability to maintain equilibrium on rod at 30 to 300 mg/kg, ip measured after 4 hr by rotarod test; format: toxicity, organism-based; set-up: dose 30-300 mg/kg, route intraperitoneal; details: in vivo
[3] = test system: Rattus norvegicus; assay: Neurotoxicity against Rattus norvegicus Wistar (rat) assessed as inability to maintain equilibrium on rod at 30 mg/kg, po measured after 4 hr by rotarod test; format: toxicity, organism-based; set-up: dose 30 mg/kg, route oral; details: in vivo
[4] = test system: Rattus norvegicus; assay: Presynaptic agonist activity at 5HT1A receptor in Rattus norvegicus Wistar (rat) assessed as change in rectal temperature at 10 mg/kg, ip measured after 30 min (reference value: -0.1 +/- 0.1 degC); format: functional, organism-based; set-up: dose 10 mg/kg
[5] = test system: Rattus norvegicus; assay: Presynaptic agonist activity at 5HT1A receptor in Rattus norvegicus Wistar (rat) assessed as change in rectal temperature at 10 mg/kg, ip measured after 60 min (reference value: 0.0 +/- 0.1 degC); format: functional, organism-based; set-up: dose 10 mg/kg
[6] = test system: Rattus norvegicus; assay: Anticonvulsant activity in Rattus norvegicus Wistar (rat) assessed as reduction in maximal electroshock-induced seizures at 30 mg/kg, po measured after 4 hr; format: functional, organism-based; set-up: dose 30 mg/kg
[7] = test system: Rattus norvegicus; assay: Presynaptic agonist activity at 5HT1A receptor in Rattus norvegicus Wistar (rat) assessed as change in rectal temperature at 10 mg/kg, ip measured after 120 min (reference value: 0.0 +/- 0.1 degC); format: functional, organism-based; set-up: dose 10 mg/kg
[8] = test system: Rattus norvegicus; assay: Anticonvulsant activity in Rattus norvegicus Wistar (rat) assessed as reduction in maximal electroshock-induced seizures at 30 mg/kg, po measured after 0.5 hr; format: functional, organism-based; set-up: dose 30 mg/kg
[9] = test system: Mus musculus; assay: Anticonvulsant activity in Mus musculus Swiss albino (mouse) assessed as reduction in maximal electroshock-induced seizure at 30 mg/kg, ip measured after 4 hr; format: functional, organism-based; set-up: dose 30 mg/kg
[10] = test system: Mus musculus; assay: Neurotoxicity against Mus musculus Swiss albino (mouse) assessed as inability to maintain equilibrium on rod at 30 to 300 mg/kg, ip measured after 0.5 hr by rotarod test; format: toxicity, organism-based; set-up: dose 30-300 mg/kg, route intraperitoneal; details: in vivo
[11] = test system: Rattus norvegicus; assay: Neurotoxicity against Rattus norvegicus Wistar (rat) assessed as inability to maintain equilibrium on rod at 30 mg/kg, po measured after 0.5 hr by rotarod test; format: toxicity, organism-based; set-up: dose 30 mg/kg, route oral; details: in vivo
[12] = test system: Rattus norvegicus; assay: Postsynaptic agonist activity at 5HT1A receptor in Rattus norvegicus Wistar (rat) assessed as increase in lower lip retraction at 10 to 20 mg/kg, ip measured after 15 min; format: functional, organism-based
[13] = test system: Rattus norvegicus; assay: Presynaptic agonist activity at 5HT1A receptor in Rattus norvegicus Wistar (rat) assessed as change in rectal temperature at 10 mg/kg, ip measured after 90 min (reference value: -0.2 +/- 0.1 degC); format: functional, organism-based; set-up: dose 10 mg/kg
[14] = test system: Rattus norvegicus; assay: Presynaptic agonist activity at 5HT1A receptor in Rattus norvegicus Wistar (rat) assessed as change in rectal temperature at 20 mg/kg, ip measured after 90 min (reference value: -0.2 +/- 0.1 degC); format: functional, organism-based; set-up: dose 20 mg/kg
[15] = test system: Rattus norvegicus; assay: Presynaptic agonist activity at 5HT1A receptor in Rattus norvegicus Wistar (rat) assessed as change in rectal temperature at 20 mg/kg, ip measured after 60 min (reference value: 0.0 +/- 0.1 degC); format: functional, organism-based; set-up: dose 20 mg/kg
[16] = test system: Rattus norvegicus; assay: Presynaptic agonist activity at 5HT1A receptor in Rattus norvegicus Wistar (rat) assessed as change in rectal temperature at 20 mg/kg, ip measured after 120 min (reference value: 0.0 +/- 0.1 degC); format: functional, organism-based; set-up: dose 20 mg/kg
[17] = test system: Mus musculus; assay: Binding affinity to 5HT2A receptor in ip dosed Mus musculus Swiss albino (mouse) assessed as effect on +/-DOI-induced head twitching administered 60 min prior to +/-DOI-challenge measured for 20 min; format: functional, organism-based
[18] = test system: Rattus norvegicus; assay: Presynaptic agonist activity at 5HT1A receptor in Rattus norvegicus Wistar (rat) assessed as change in rectal temperature at 20 mg/kg, ip measured after 30 min (reference value: -0.1 +/- 0.1 degC); format: functional, organism-based; set-up: dose 20 mg/kg
[19] = test system: Mus musculus; assay: Anticonvulsant activity in Mus musculus Swiss albino (mouse) assessed as reduction in maximal electroshock-induced seizure at 30 to 300 mg/kg, ip measured after 4 hr; format: functional, organism-based
[20] = test system: Mus musculus; assay: Anticonvulsant activity in Mus musculus Swiss albino (mouse) assessed as reduction in maximal electroshock-induced seizure at 30 to 300 mg/kg, ip measured after 0.5 hr; format: functional, organism-based
[21] = test system: Mus musculus; assay: Neurotoxicity against Mus musculus Swiss albino (mouse) assessed as inability to maintain equilibrium on rod at 300 mg/kg, ip measured after 4 hr by rotarod test; format: toxicity, organism-based; set-up: dose 300 mg/kg, route intraperitoneal; details: in vivo
[22] = test system: Mus musculus; assay: Anticonvulsant activity in Mus musculus Swiss albino (mouse) assessed as reduction in maximal electroshock-induced seizure at 300 mg/kg, ip measured after 4 hr; format: functional, organism-based; set-up: dose 300 mg/kg
[23] = test system: Mus musculus; assay: Antagonist activity at 5HT2A receptor in ip dosed Mus musculus Swiss albino (mouse) assessed as inhibition of +/-DOI-induced head twitching administered 60 min prior to +/-DOI-challenge measured for 20 min; format: functional; details: read-out: ID50 (the source's name)
[24] = test system: Rattus norvegicus; assay: Postsynaptic antagonist activity at 5HT1A receptor in Rattus norvegicus Wistar (rat) assessed as inhibition of 8-OH-DPAT-induced lower lip retraction at 10 to 20 mg/kg, ip administered 45 min prior to 8-OH-DPAT-challenge measured after 15 min; format: functional, organism-based
[25] = test system: Mus musculus; assay: Anticonvulsant activity in Mus musculus Swiss albino (mouse) assessed as reduction in maximal electroshock-induced seizure at 100 mg/kg, ip measured after 4 hr; format: functional, organism-based; set-up: dose 100 mg/kg

O=C1NC(c2ccccc2)(c2ccccc2)C(=O)N1CCNc1ccc(F)cc1
Activity [1]: Active
Activity [2]: Non-toxic
Activity [3]: Non-toxic
deltaT [4]: -0.5 °C
deltaT [5]: -0.7 °C
Activity [6]: Active
deltaT [7]: -0.7 °C
Activity [8]: Active
Activity [9]: Active
Activity [10]: Non-toxic
Activity [11]: Non-toxic
Activity [12]: Active
deltaT [13]: -0.9 °C
deltaT [14]: -2.9 °C
deltaT [15]: -2.7 °C
deltaT [16]: -1.5 °C
Activity [17]: inactive
deltaT [18]: -2.5 °C

Cc1ccc(NCCN2C(=O)NC(c3ccccc3)(c3ccccc3)C2=O)cc1
Activity [2]: Non-toxic
Activity [19]: inactive
Activity [10]: Non-toxic
Activity [20]: inactive

O=C1NC(c2ccccc2)(c2ccccc2)C(=O)N1CCN1CCN(c2ccc(Cl)cc2)CC1
Activity [2]: Non-toxic
Activity [19]: inactive
Activity [10]: Non-toxic
Activity [20]: inactive

O=C1OC(c2ccccc2)C(=O)N1CCN1CCN(c2ccc([N+](=O)[O-])cc2)CC1 (centres undefined)
Activity [10]: Non-toxic
Activity [21]: Toxic
Activity [20]: inactive
Activity [22]: Active

O=C1OC(c2ccccc2)C(=O)N1CCN1CCN(c2ccc(Cl)cc2)CC1 (centres undefined)
Activity [2]: Non-toxic
Activity [19]: inactive
Activity [10]: Non-toxic
Activity [20]: inactive

Cc1ccc(N2CCN(CCN3C(=O)OC(c4ccccc4)C3=O)CC2)cc1 (centres undefined)
Activity [2]: Non-toxic
Activity [19]: inactive
Activity [10]: Non-toxic
Activity [20]: inactive

O=C1NC(c2ccccc2)(c2ccccc2)C(=O)N1CCNc1ccc(Cl)cc1
Activity [2]: Non-toxic
Activity [19]: inactive
Activity [10]: Non-toxic
Activity [20]: inactive

O=C(c1ccc(F)cc1)C1CCN(CCn2c(=O)[nH]c3ccccc3c2=O)CC1 [KETANSERIN]
ED50 [23]: 0.12 mg/kg

Cc1ccc(NCCN2C(=O)OC(c3ccccc3)C2=O)cc1 (centres undefined)
Activity [2]: Non-toxic
Activity [19]: inactive
Activity [10]: Non-toxic
Activity [20]: inactive

O=C1OC(c2ccccc2)C(=O)N1CCNc1ccc(F)cc1 (centres undefined)
Activity [10]: Non-toxic
Activity [21]: Toxic
Activity [20]: inactive
Activity [22]: Active

O=C1NC(c2ccccc2)(c2ccccc2)C(=O)N1CCNc1ccc(O)cc1
Activity [2]: Non-toxic
Activity [19]: inactive
Activity [10]: Non-toxic
Activity [20]: inactive

O=C1OC(c2ccccc2)C(=O)N1CCN1CCN(c2ccc(O)cc2)CC1 (centres undefined)
Activity [2]: Non-toxic
Activity [19]: inactive
Activity [10]: Non-toxic
Activity [20]: inactive

O=C1NC(c2ccccc2)(c2ccccc2)C(=O)N1CCN1CCN(c2ccc([N+](=O)[O-])cc2)CC1
Activity [10]: Non-toxic
Activity [21]: Toxic
Activity [20]: inactive
Activity [22]: Active

O=C1NC(c2ccccc2)(c2ccccc2)C(=O)N1CCN1CCN(c2ccc(F)cc2)CC1
Activity [2]: Non-toxic
Activity [3]: Non-toxic
deltaT [4]: -0.9 °C
deltaT [5]: -0.7 °C
Activity [6]: Active
deltaT [7]: -0.8 °C
Activity [8]: inactive
Activity [9]: Active
Activity [10]: Non-toxic
Activity [11]: Non-toxic
Activity [12]: Active
deltaT [13]: -0.7 °C
deltaT [14]: -1.6 °C
deltaT [15]: -1.6 °C
deltaT [16]: -1.7 °C
Activity [17]: inactive
Activity [20]: inactive
deltaT [18]: -1.7 °C

COc1ccc(NCCN2C(=O)OC(c3ccccc3)C2=O)cc1 (centres undefined)
Activity [2]: Non-toxic
Activity [3]: Non-toxic
deltaT [4]: -0.5 °C
deltaT [5]: -0.8 °C
Activity [6]: inactive
inhibition [24]: Active
deltaT [7]: -0.7 °C
Activity [8]: inactive
Activity [10]: Non-toxic
Activity [11]: Non-toxic
deltaT [13]: -0.8 °C
Activity [25]: Active
deltaT [14]: -1.5 °C
deltaT [15]: -1.5 °C
deltaT [16]: -1.3 °C
Activity [17]: inactive
Activity [20]: inactive
deltaT [18]: -1.1 °C

O=C1NC(c2ccccc2)(c2ccccc2)C(=O)N1CCN1CCN(c2ccccn2)CC1
Activity [2]: Non-toxic
Activity [19]: inactive
Activity [10]: Non-toxic
Activity [20]: inactive

O=C1OC(c2ccccc2)C(=O)N1CCN1CCN(c2ccc(F)cc2)CC1 (centres undefined)
Activity [2]: Non-toxic
Activity [3]: Non-toxic
deltaT [4]: -0.6 °C
deltaT [5]: -0.4 °C
Activity [6]: inactive
inhibition [24]: Active
deltaT [7]: -0.5 °C
Activity [8]: inactive
Activity [10]: Non-toxic
Activity [11]: Non-toxic
deltaT [13]: -0.5 °C
Activity [25]: Active
deltaT [14]: -1.4 °C
deltaT [15]: -1.4 °C
deltaT [16]: -1.4 °C
Activity [17]: inactive
Activity [20]: inactive
deltaT [18]: -1.5 °C

O=C1OC(c2ccccc2)C(=O)N1CCN1CCN(c2ccccn2)CC1 (centres undefined)
Activity [2]: Non-toxic
Activity [19]: inactive
Activity [10]: Non-toxic
Activity [20]: inactive

O=C1NC(c2ccccc2)(c2ccccc2)C(=O)N1CCN1CCN(c2ccc(O)cc2)CC1
Activity [10]: Non-toxic
Activity [21]: Toxic
Activity [20]: inactive
Activity [22]: Active
